Laboratory results as given in ChEMBL document CHEMBL1201862, “PubChem BioAssay data set” (2004).
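Cultured in 96-well plates, cells were exposed to test compound for 48 hours across five concentrations. The concentration for 50% growth inhibition is given as GI50.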 Calls of active or inactive are those of the source. No stated cut-off is given here; in the data, active = GI50 up to about 1.1 µM and inactive = higher.

How the values were obtained:
Assay in all cases: inhibition of tumour cell growth, NCI panel, 48 h
A498 = test system: A498
HL-60 = test system: HL-60
HOP-62 = test system: HOP-62
HOP-92 = test system: HOP-92
K562 = test system: K562
LOX IMVI = test system: LOX IMVI
M14 = test system: M14
NCI-H460 = test system: NCI-H460
NCI/ADR-RES = test system: NCI/ADR-RES
OVCAR-8 = test system: OVCAR-8
PC-3 = test system: PC-3
RPMI-8226 = test system: RPMI-8226
RXF 393 = test system: RXF 393
SF-268 = test system: SF-268
SN12C = test system: SN12C
SNB-75 = test system: SNB-75
UO-31 = test system: UO-31
NCI-H522 = test system: NCI-H522

Row | Compound | GI50 (A498) | GI50 (HL-60) | GI50 (HOP-62) | GI50 (HOP-92) | GI50 (K562) | GI50 (LOX IMVI) | GI50 (M14) | GI50 (NCI-H460) | GI50 (NCI/ADR-RES) | GI50 (OVCAR-8) | GI50 (PC-3) | GI50 (RPMI-8226) | GI50 (RXF 393) | GI50 (SF-268) | GI50 (SN12C) | GI50 (SNB-75) | GI50 (UO-31) | GI50 (NCI-H522)
1 | COc1ccccc1-c1nc(-c2ccccc2O)n[nH]1 | > 100 µM (inactive) | > 100 µM (inactive) | > 100 µM (inactive) | > 100 µM (inactive) | > 100 µM (inactive) | 71.1 µM (inactive) | > 100 µM (inactive) | > 100 µM (inactive) | > 100 µM (inactive) | > 100 µM (inactive) | > 100 µM (inactive) | > 100 µM (inactive) | > 100 µM (inactive) | > 100 µM (inactive) | > 100 µM (inactive) | > 100 µM (inactive) | > 100 µM (inactive) | 
2 | CCN(CC)CC1CCCCN1CC(=O)N1c2ccccc2NC(=O)CC1C (stereo not given) | > 100 µM (inactive) | > 100 µM (inactive) | > 100 µM (inactive) | > 100 µM (inactive) | > 100 µM (inactive) | > 100 µM (inactive) | > 100 µM (inactive) | > 100 µM (inactive) | > 100 µM (inactive) | > 100 µM (inactive) | > 100 µM (inactive) | > 100 µM (inactive) | > 100 µM (inactive) | > 100 µM (inactive) | > 100 µM (inactive) |  | > 100 µM (inactive) | > 100 µM (inactive)
3 | O/N=N/c1ccc(-c2ccccc2)cn1 | 13 µM (inactive) | 0.176 µM (active) | 3.45 µM (inactive) | 1.32 µM (inactive) | 19.6 µM (inactive) | 6.21 µM (inactive) | 9.08 µM (inactive) | 6.25 µM (inactive) | 8.77 µM (inactive) | 15 µM (inactive) | 7.4 µM (inactive) | < 0.01 µM (active) | 1.38 µM (inactive) | 4.59 µM (inactive) | 10.8 µM (inactive) | 6.46 µM (inactive) | 13.2 µM (inactive) | 18.8 µM (inactive)
4 | CCCCCCCCCCCCCCCC(=O)OCC1CCCN2CCCCC12 (stereo not given) | > 100 µM (inactive) | > 100 µM (inactive) | > 100 µM (inactive) | > 100 µM (inactive) | > 100 µM (inactive) | > 100 µM (inactive) | > 100 µM (inactive) | > 100 µM (inactive) | > 100 µM (inactive) | > 100 µM (inactive) | > 100 µM (inactive) | > 100 µM (inactive) | > 100 µM (inactive) | > 100 µM (inactive) | > 100 µM (inactive) | > 100 µM (inactive) | > 100 µM (inactive) | 
5 | Cc1cc(OC2OC(CO)C(O)C(O)C2O)ccc1O (stereo not given) | > 100 µM (inactive) | > 100 µM (inactive) | > 100 µM (inactive) | > 100 µM (inactive) | > 100 µM (inactive) | > 100 µM (inactive) | > 100 µM (inactive) | > 100 µM (inactive) | > 100 µM (inactive) | > 100 µM (inactive) | > 100 µM (inactive) | > 100 µM (inactive) | > 100 µM (inactive) | > 100 µM (inactive) | > 100 µM (inactive) | > 100 µM (inactive) | > 100 µM (inactive) | > 100 µM (inactive)
6 | CC(=O)Nc1sc([N+](=O)[O-])cc1S(=O)(=O)c1ccc(Cl)cc1 | 3.17 µM (inactive) | 1.92 µM (inactive) | 1.39 µM (inactive) | 2 µM (inactive) | 5.47 µM (inactive) | 3.94 µM (inactive) | 2.02 µM (inactive) | 1.65 µM (inactive) | 3.22 µM (inactive) | 3.78 µM (inactive) | 2.02 µM (inactive) | 3.14 µM (inactive) | 2.64 µM (inactive) | 4.35 µM (inactive) | 3.8 µM (inactive) | 2.21 µM (inactive) | 3.09 µM (inactive) | 1.41 µM (inactive)
